pEC50: −log10 of the molar value.
Assays:
[1] = target: Gamma-aminobutyric acid receptor subunit alpha-6/beta-3/gamma-2 (Rattus norvegicus) (UniProt P18508+P30191+P63079); assay: Modulation of rat alpha6beta3gamma2 GABA A receptor expressed in Xenopus oocytes assessed as desensitization of GABA current at -80 mV holding potential at more than 300 uM by two-electrode voltage-clamp assay relative to control; type: cell-based; settings: filed as modulator
[2] = target: Gamma-aminobutyric acid receptor subunit alpha-6/beta-3/gamma-2 (Rattus norvegicus, UniProt P18508+P30191+P63079); assay: Modulation of rat alpha6beta3gamma2 GABA A receptor expressed in Xenopus oocytes assessed as reduction in desensitization at -80 mV holding potential by two-electrode voltage-clamp assay; type: cell-based
Chain of Gamma-aminobutyric acid receptor subunit alpha-6/beta-3/gamma-2 (P18508 whole entry): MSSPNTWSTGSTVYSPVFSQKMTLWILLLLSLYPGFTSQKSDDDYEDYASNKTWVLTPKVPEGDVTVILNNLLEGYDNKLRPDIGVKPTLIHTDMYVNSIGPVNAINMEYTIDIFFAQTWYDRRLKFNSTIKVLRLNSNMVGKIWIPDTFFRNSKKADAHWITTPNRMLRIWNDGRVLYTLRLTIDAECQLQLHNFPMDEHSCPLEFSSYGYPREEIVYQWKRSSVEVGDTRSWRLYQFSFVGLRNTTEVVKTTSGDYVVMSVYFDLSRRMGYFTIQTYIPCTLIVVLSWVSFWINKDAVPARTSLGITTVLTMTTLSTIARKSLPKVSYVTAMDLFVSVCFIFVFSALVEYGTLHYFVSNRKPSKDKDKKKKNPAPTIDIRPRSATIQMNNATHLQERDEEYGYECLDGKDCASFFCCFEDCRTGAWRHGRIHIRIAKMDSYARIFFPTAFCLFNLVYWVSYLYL
Chain of Gamma-aminobutyric acid receptor subunit alpha-6/beta-3/gamma-2 (P30191 whole entry): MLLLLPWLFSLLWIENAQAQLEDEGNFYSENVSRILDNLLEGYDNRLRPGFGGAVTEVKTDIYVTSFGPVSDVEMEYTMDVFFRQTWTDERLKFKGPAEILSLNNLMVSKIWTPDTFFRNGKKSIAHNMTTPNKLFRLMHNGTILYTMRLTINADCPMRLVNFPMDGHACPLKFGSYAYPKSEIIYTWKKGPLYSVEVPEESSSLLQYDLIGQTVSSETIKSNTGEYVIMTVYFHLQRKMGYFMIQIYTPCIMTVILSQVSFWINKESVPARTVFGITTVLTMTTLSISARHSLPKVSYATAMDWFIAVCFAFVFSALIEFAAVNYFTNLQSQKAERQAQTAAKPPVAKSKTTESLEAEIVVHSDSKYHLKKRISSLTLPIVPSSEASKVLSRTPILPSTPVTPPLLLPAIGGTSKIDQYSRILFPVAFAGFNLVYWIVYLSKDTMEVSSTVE
Chain of Gamma-aminobutyric acid receptor subunit alpha-6/beta-3/gamma-2 (P63079 whole entry): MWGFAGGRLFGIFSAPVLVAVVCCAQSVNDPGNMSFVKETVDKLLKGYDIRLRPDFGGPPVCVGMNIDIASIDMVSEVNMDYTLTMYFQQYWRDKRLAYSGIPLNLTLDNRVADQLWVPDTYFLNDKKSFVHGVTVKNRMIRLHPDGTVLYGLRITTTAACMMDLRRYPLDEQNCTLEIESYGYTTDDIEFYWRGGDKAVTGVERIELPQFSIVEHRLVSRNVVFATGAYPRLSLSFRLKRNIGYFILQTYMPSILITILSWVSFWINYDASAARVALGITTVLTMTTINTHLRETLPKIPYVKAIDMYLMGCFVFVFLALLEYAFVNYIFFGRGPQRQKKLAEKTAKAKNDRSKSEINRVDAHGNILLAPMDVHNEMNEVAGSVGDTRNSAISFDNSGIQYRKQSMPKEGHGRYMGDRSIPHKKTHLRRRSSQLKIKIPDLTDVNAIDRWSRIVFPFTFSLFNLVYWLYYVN

SMILES | Activity [1] [%] | pEC50 [2]
Cc1ccc(C(C)(C)CC#N)c(Cl)c1 | 1360 | 4.55
Cc1ccc(C(C)CC#N)c(Cl)c1 (racemic) | 600 | 4.42
Cl/C(=C\n1cncn1)c1ccc(Cl)cc1Cl [LORECLEZOLE] | 600 | 4.42

From ChEMBL document CHEMBL5247619, “Novel alpha6 preferring GABA-A receptor ligands based on loreclezole” (Eur J Med Chem, 2022)
